Assay results: patent publication US20240189278A1, “NOVEL COMPOUNDS AND METHODS FOR INCREASING KLOTHO GENE EXPRESSION” (Klotho Therapeutics, Inc., priority 2017, published 2024)

Assays:
Type in all cases: in vivo, mouse
aged mice [1] = test: Blood pressure by VPR tail-cuff method in aged mice
Experimental: (§1) Animal study protocols. This example was performed according to the guide lines of the National Institute of Health on the care and use of laboratory animals and approved by the institutional Animal Care and Use Committee of University of Oklahoma Health Science Center. AU mice were housed in cages at room temperature (2S±PC) and were provided with Purina laboratory chow No 5001) and tap Water and lithium. 6 adult mice (12 months) and 20 old mice (24-26 months) mice were next in this study. The old (aged) mice were randomly divided into three subgroups and each group had 6 or 7 mice. One subgroup received compound H (10 mg/kg/day1, IP, Enamine LLC, Monmouth Jct., NJ) and one group received an equal volume of DMSO (dimethyl sulfoxide, 5%) and served as a control. The third group received no treatment Blood pressure was measured before and after treatment with the active agent at 1 week and 2 week. Pulse wave velocity (PWV) was measured after 2 weeks treatment with active agent all animals were sacrificed and perfused transcardially with PBS under deep anesthesia (ketamine xylazine, 90/10 mg, IP). The aortas were then quickly removed, washed and cut into pieces for subsequent analyses.
Measurement of Blood Pressure: Blood pressure was measured by the volume-pressure recording (VPR) tail-cuff method with slight (28° C.) but not heating of the tail using it CODA none-invasive blood pressure monitoring system (Kent Scientific). This method of measurement has been validated by using a telemetry system. Animals were gently handled and trained for the VPR tail-cuff measurement to minimize handling stress. No signs of stress were observed during BP measurements. The operator was also strictly trained for the measurement procedure. At least 20 stable cycles data were obtained for the result analysis for each measurement.

aged mice [2] = test: Pulse wave velocity (arterial stiffness) in aged mice; conditions: 10 mg/kg/day IP, 2 weeks treatment
Experimental: as §1, with “One subgroup received compound H (10 mg/kg/day1, IP, Enamine LLC, Monmouth Jct., NJ) and one group received an equal volume of DMSO (dimethyl sulfoxide, 5%) and served as a control.” left out, “The aortas were then quickly removed, washed and cut into pieces for subsequent analyses.” left out
Measurement of Pulse Wave Velocity: Aortic PWV was measured as described previously. […] Velocities were measured with 6-mm crystal […] Doppler probes (Indus Instruments, Webster, TX) at the transverse aortic arch and 3.5 cm distal in the abdominal aorta and collected using Doppler signal processing workstation (Indus instruments). […]

MMP9 = test: Western blot of MMP9, aortas of aged mice
Experimental: as §1, with “The aortas were then quickly removed, washed and cut into pieces for subsequent analyses.” left out
Western Blot Analysis: Protein samples from the thoracic aorta were prepared in Lysis buffer as described previously. […] Protein abundance on western blots was quantified densitometry using Image lab software (Bio-Rad, Hercules, CA).

[3] = 10 mg/kg/day IP, 2 weeks treatment

O=C(Nc1ccccc1Cl)c1c[nH]c2ccccc12 [active agent, N-(2-chlorophenyl)-Ul-indde-3-carboxamide]
decreased: Diastolic blood pressure (aged mice [1]; [3]) | Mean blood pressure (aged mice [1]; [3]) | Pulse pressure (aged mice [1]; [3]) | Systolic blood pressure (aged mice [1]; [3]) | Blood pressure (aged mice [1]; after 1 week of treatment) | Pulse wave velocity (PWV) (aged mice [2]) | MMP9 protein expression (MMP9)
